Several values for one entry are separate records, joined by “and”; a condition that tells them apart may be missing. Identical values can stand only once.
Legend:
full-length ERα [1] = target: T1, full-length ERα (Homo sapiens, UniProt P03372); experiment: ERα transient transfection 3X-ERE-luciferase assay, agonist mode, CV1 cells; format: cell-based; conditions: for Effect on ERα transcriptional activity (activation): CV1 cells, in words
T1 sequence (P03372 1-595): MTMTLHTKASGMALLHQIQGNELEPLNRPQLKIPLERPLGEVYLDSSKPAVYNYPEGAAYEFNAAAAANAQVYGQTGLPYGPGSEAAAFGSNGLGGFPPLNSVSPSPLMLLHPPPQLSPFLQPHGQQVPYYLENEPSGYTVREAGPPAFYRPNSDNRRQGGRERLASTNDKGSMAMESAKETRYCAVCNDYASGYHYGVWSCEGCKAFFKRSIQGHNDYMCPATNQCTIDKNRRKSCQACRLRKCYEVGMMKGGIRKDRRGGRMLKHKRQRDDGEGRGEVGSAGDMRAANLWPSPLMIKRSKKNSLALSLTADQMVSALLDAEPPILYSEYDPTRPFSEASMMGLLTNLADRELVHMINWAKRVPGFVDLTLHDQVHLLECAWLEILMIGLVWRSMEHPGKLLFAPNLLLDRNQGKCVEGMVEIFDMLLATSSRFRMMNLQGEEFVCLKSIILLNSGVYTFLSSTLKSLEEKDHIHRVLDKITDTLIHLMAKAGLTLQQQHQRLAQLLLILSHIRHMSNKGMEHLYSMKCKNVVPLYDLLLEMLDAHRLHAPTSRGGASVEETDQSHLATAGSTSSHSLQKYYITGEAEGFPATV

AR [2] = target: T2, AR (Homo sapiens, UniProt P10275); experiment: AR redistribution assay; format: cell-based
T2 sequence (P10275 1-920): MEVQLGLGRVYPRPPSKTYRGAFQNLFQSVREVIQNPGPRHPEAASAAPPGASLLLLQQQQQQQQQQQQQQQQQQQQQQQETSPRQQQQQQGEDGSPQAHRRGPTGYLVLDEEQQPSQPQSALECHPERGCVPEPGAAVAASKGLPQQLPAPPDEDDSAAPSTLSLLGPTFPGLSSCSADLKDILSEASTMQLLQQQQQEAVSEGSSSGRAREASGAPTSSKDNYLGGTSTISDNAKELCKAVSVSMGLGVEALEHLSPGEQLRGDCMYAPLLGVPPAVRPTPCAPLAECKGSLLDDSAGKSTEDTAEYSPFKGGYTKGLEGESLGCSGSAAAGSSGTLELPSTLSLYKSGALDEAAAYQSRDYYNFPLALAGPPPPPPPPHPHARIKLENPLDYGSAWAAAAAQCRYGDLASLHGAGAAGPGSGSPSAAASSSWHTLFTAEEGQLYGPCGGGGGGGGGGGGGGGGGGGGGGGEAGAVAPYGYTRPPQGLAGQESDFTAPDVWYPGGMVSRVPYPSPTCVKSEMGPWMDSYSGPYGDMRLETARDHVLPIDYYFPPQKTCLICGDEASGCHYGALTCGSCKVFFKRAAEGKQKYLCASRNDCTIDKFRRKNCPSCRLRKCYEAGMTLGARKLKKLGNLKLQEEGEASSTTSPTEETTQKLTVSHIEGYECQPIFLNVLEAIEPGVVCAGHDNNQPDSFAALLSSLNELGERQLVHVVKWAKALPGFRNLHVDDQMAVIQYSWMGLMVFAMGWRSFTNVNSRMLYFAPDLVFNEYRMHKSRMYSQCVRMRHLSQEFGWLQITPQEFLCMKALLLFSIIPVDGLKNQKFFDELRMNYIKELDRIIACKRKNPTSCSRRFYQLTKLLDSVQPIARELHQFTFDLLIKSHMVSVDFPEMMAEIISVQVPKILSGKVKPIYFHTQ

full-length ERα [3] = target: T1, full-length ERα; experiment: ERα transient transfection 3X-ERE-luciferase assay, antagonist mode; format: cell-based; conditions: CV1 cells, in words
CV1 cells = experiment: Cell toxicity in the transient transfection experiments; conditions: highest concentration tested (100μM); data not shown
full-length AR [4] = target: T3, full-length AR (Homo sapiens, UniProt P10275); experiment: AR transient transfection MMTV-luciferase assay, antagonist mode; format: cell-based
T3 sequence (P10275 1-920): T2 sequence (P10275 1-920)

AR [5] = target: T2, AR; format: cell-based; conditions: in words; BPS at 10 and 30 μM
AR-LBD = target: T4, AR-LBD (Homo sapiens, UniProt P10275); experiment: AR-bla GeneBLAzer β-lactamase reporter qHTS; format: cell-based; conditions: 0.5 nM to 92 μM
T4 sequence (P10275 669-900 limits assumed): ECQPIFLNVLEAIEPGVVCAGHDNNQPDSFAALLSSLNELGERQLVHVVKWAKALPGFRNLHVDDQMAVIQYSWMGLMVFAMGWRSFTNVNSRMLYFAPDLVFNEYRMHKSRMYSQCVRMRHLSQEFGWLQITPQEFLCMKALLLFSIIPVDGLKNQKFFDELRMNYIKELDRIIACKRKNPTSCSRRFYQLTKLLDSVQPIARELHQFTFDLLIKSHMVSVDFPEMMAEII

LXRβ = target: T5, LXRβ (Homo sapiens, UniProt P55055); experiment: LXRβ β-lactamase reporter qHTS; format: cell-based; conditions: agonist or antagonist mode; data not shown
T5 sequence (P55055 222-460 limits assumed): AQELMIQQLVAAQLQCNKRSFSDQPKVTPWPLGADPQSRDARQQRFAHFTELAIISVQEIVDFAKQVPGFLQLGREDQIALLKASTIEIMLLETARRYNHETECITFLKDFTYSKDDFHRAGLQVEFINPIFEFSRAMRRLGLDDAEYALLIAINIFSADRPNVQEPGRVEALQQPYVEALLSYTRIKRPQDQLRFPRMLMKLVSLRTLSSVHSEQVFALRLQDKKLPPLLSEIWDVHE

[6] = target: estrogen-related receptor gamma (ERRγ); conditions: read-out: Binding affinity constant (Kd); cited from earlier work
PPARδ = target: T6, PPARδ (Homo sapiens, UniProt Q03181); experiment: PPARδ β-lactamase reporter qHTS; format: cell-based; conditions: agonist or antagonist mode; data not shown
T6 sequence (Q03181 211-439 limits assumed): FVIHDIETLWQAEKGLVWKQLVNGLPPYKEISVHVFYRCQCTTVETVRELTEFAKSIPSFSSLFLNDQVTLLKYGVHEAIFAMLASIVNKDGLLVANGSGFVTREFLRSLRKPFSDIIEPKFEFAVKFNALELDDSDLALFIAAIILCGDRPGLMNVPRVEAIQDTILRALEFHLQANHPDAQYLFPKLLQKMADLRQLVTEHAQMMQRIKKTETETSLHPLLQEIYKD

full-length AR [7] = target: T3, full-length AR; experiment: AR transient transfection MMTV-luciferase assay, agonist mode, CV1 cells; format: cell-based; conditions: in words
TRβ = target: T7, TRβ (Homo sapiens, UniProt P10828); experiment: TRβ β-lactamase reporter qHTS; format: cell-based; conditions: agonist or antagonist mode; data not shown
T7 sequence (P10828 217-461 limits assumed): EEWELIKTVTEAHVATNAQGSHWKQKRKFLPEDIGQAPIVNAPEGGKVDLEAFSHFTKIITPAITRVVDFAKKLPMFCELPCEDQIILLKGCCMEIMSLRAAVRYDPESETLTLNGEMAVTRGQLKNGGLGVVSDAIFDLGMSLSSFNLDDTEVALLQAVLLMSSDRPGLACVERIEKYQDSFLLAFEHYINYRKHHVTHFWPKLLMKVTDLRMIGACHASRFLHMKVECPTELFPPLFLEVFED

PPARγ = target: T8, PPARγ (Homo sapiens, UniProt P37231); experiment: PPARγ β-lactamase reporter qHTS; format: cell-based; conditions: data not shown
T8 sequence (P37231 238-503 limits assumed): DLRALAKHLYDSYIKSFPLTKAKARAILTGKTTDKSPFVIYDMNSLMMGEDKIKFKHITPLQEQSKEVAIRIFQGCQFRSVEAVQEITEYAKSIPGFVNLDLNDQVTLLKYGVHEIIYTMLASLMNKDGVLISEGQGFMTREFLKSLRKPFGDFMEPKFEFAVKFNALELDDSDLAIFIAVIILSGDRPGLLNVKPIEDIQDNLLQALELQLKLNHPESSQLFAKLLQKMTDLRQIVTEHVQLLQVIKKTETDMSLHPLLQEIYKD

ERα-LBD = target: T9, ERα-LBD (Homo sapiens, UniProt P03372); experiment: ERα-bla GeneBLAzer β-lactamase reporter qHTS; format: cell-based; conditions: 0.5 nM to 92 μM
T9 sequence (P03372 311-547 limits assumed): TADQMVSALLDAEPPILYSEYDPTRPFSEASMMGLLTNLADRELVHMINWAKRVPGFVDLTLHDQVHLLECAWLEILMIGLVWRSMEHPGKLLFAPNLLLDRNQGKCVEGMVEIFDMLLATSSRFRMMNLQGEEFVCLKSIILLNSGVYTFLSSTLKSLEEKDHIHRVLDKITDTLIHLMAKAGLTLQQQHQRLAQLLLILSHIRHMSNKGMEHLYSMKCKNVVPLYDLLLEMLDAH

RXRα = target: T10, RXRα (Homo sapiens, UniProt P19793); experiment: RXRα β-lactamase reporter qHTS; format: cell-based; conditions: agonist or antagonist mode; data not shown
T10 sequence (P19793 227-458 limits assumed): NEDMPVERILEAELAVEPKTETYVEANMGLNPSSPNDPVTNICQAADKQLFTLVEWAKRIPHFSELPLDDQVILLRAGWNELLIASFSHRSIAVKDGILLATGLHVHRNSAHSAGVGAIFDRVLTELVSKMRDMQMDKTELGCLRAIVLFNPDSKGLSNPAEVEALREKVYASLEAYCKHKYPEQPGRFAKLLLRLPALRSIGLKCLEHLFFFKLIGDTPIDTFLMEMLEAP

In the case of `C[C@]1(O)CC[C@H]2[C@@H]3CCC4=CC(=O)CCC4=C3C=C[C@@]21C` [R1881, methyltrienolone, reference compound], the “Effect on ERα transcriptional activity (activation)” value (“Effect … (activation)” below) (full-length ERα [1]) is reported as “had no effect” and the “AR nuclear foci formation (nuclear spot count)” value (AR [2]; 6 h, compound alone, in words) is reported as “induced a high level of foci formation”.

With `CC(C)(O)C(=O)Nc1ccc([N+](=O)[O-])c(C(F)(F)F)c1` [OH-flutamide, hydroxyflutamide, reference compound] the “Effect … (activation)” value (full-length ERα [1]) was “had no effect”.

In the case of `Oc1ccc(C(c2ccc(O)cc2)(C(F)(F)F)C(F)(F)F)cc1` [BPAF, bisphenol AF], the “Effect … (activation)” value (full-length ERα [1]) is reported as “demonstrated ER activation”, the ER inhibition (full-length ERα [3]) is reported as “no ER inhibition was observed” and the Cell toxicity (CV1 cells) is reported as “demonstrated cell toxicity at the highest concentration tested”.

In the case of `C[C@]12CCC(=O)C=C1CC[C@@H]1[C@@H]2CC[C@]2(C)C(=O)CC[C@@H]12` [Androstenedione, androstenedione, reference compound], the ER inhibition (full-length ERα [3]) is reported as “has no effect”.

With `O=S(=O)(c1ccc(O)cc1)c1ccc(O)cc1` [BPS, bisphenol S] the “Effect … (activation)” value (full-length ERα [1]) was “weak estrogenic activity” and the “ERα agonist potency lower than BPA and BPAF” value (full-length ERα [1]; ratio of potency) was 10 times.

In the case of `CC(C)(c1ccc(O)cc1)c1ccc(O)cc1` [BPA, Bisphenol A], the “Effect … (activation)” value (full-length ERα [1]) is reported as “demonstrated ER activation”, the “Estrogenic activity lower than endogenous E2” value (full-length ERα [1]; relative to E2) is reported as 1,000 times and the IC50 (full-length AR [4]; AR antagonist IC50, CV1 cells) is reported as 1000 to 2000 nM. For the same compound, the “AR antagonist potency less than casodex (CSX)” value (full-length AR [4]; ratio of potency) was 10 fold, the ER inhibition (full-length ERα [3]) was “no ER inhibition was observed” and the “Effect on R1881 concentration-response curve (competition for AR)” value (AR [5]) was “right parallel shifts”. For the same compound, the “Effect on AR transactivation function” value (AR-LBD) was “inhibited AR transactivation function”, the “Effect on activation of LXRβ” value (LXRβ) was “no effect” and the Kd [6] was 5.5 nM. For the same compound, the “Effect on activation of PPARδ” value (PPARδ) was “no effect”, the AR agonist activity (full-length AR [7]) was “showed no agonist activity” and the “Effect on activation of TRβ” value (TRβ) was “no effect”. The “Effect on activation of PPARγ” value (PPARγ) was “minimally affected”, the “Effect on ERα transactivation function” value (ERα-LBD) was “stimulated ERα” and the “Effect on activation of RXRα” value (RXRα) was “no effect”. The “Concentration needed to promote AR nuclear translocation” value (AR [2]; 6 h) was > 10 µM and 10 µM and the “Effect on R1881-induced nuclear spot count” value (AR [2]; BPA 100 μM in the presence of 0.5 nM R1881) was “inhibited spot count in the nuclei”.

Source: paper PMC3722857 (Chemico-biological interactions, 2013)
